Data set [1] is described as follows: Drug-drug compatibility test under accelerated stability conditions. It counts as physicochemical. As to the method: Specifically, after storing a mixture of ARB and SGLT-2 inhibitor for 4 weeks under accelerated stability test conditions (40 ± 2°C/75 ± 5% relative humidity), changes in the contents of each ingredient and flexible substance and changes in properties (color, agglomeration, etc.) were analyzed. Olmesartan, Valsartan, and Telmisartan were used as ARBs, and Empagliflozin, Dapagliflozin (Dapagliflozin propanediol monohydrate), and Canagliflozin were used as SGLT-2 inhibitors. [Table 4] […] To observe the properties and viscosity of the main ingredients, 10 g of the mixtures of ARBs and SGLT-2 inhibitors stored for 1, 2, 3, and 4 weeks were taken and exposed to 100 ml of purified water at room temperature for 10 minutes, and then the properties and viscosity were identified.

The subject of data set [2] is angiotensin converting enzyme (ACE). As to the kind of experiment: ACE mRNA expression (RT-PCR) in LPS inflammation-induced H9c2 cells. It is filed as cell-based, rat. Particulars: alone administration, FIGS. 5 and 6. As to the method: Specifically, H9c2 cells as a […] cardiac cell line were obtained and used from the Korea Cell Line Bank (KCLB 40071, Korea) and incubated and prepared in a DMEM medium supplemented with 10% FBS and 1% antibiotic-antimycotic (10 units/ml penicillin, 100 µg/ml streptomycin, 0.25 µg/ml amphotericin) under 37°C and 5% CO2 conditions.
To confirm the effect on ACE activity, the prepared H9c2 cells were treated with 2.5 µg/ml of Lipopolysaccharide (LPS), which was 2.5 times more than the amount used in conventional inflammation-related experiments, to induce inflammation, thereby setting the optimized conditions for confirming ACE expression. LPS inflammation-induced H9c2 cells were treated with 10, 25, and 50 µM Telmisartan or olmesartan, respectively, and the H9c2 cells were harvested for ELISA assay. The harvested cells were treated with 1 ml of an RIPA buffer and stirred at 4°C for 30 minutes to extract proteins. Thereafter, the proteins were centrifuged at 4°C and 10,000 rpm for 20 minutes, and the supernatant was transferred to a sterilized tube and stored at - 80°C for use in the ELISA assay.
Specifically, LPS inflammation-induced H9c2 cells in Experimental Example 1-2 were treated with 10 or 25 µM Telmisartan and 10 or 50 µM olmesartan, and then treated with 200 µl of chloroform together with 1 ml of TRIZol (Sigma, USA), gently mixed, and separated for 10 minutes, and then centrifuged at 4°C and 10,000 rpm for 10 minutes. After centrifugation, only the supernatant from the tube was taken and transferred to a new sterile tube, and the supernatant was treated with 500 µl of isopropanol to precipitate RNA. The precipitated RNA was centrifuged at 4°C, 10,000 rpm for 10 minutes, and then the supernatant except for the pellets in the tube was fully removed, and the RNA pellets were treated with 500 µl of 75% ethyl alcohol and thoroughly washed. The washed pellets were centrifuged at 4°C, 10,000 rpm for 5 minutes, and then the supernatant except the pellets was fully removed. The tube containing the pellets from which the supernatant had been cleanly removed was treated with diethyl pyrocarbonate (DEPC)-water and stored at - 80°C for use in an RT-PCR experiment.
RT-PCR was performed by synthesizing cDNA from mRNA using an RT-PCR kit containing DNA polymerase, buffer, dNTP, and tracking dye, and then using ACE primers in Table 1 under the conditions in Table 2 for 35 cycles. The PCR products were electrophoresed on a […] agarose gel, identified using a UV transilluminator, and expressed as normalized to GAPDH for quantitative comparison.
In order to confirm the effect of each combination or single substance on the mRNA expression of ACE, the experimental samples in Table 3 were treated to H9c2 cells induced with LPS inflammation in Experimental Example 1-2, respectively, and then the mRNA expression of ACE was evaluated in the same manner as in Experimental Example 1-3.

Data set [3] is described as follows: Single oral administration pharmacokinetic test. Particulars: beagle dogs.
Experimental: The control and test drugs were administered orally once by a single tablet, and were crossed over (4 × 4 cross over) four times at one-week intervals. Fasting was performed from 5 to 6 pm the day before administration. The control and test drugs were administered into the tongue root, and then administered with approximately 15 ml of water, and feed was provided approximately 4 hours after administration. Blood was collected at 0 (blank), 0.25, 0.5, 0.75, 1, 1.5, 2, 3, 4, 5, 6, 8, 12, and 24 hours (14 times) after administration of the control and test drugs, and left by a 7-day drug-free period.
Data set [4] can be described thus: 4-week repeated oral administration toxicity. Particulars: oral daily for 4 weeks; blood test. It counts as in vivo, Sprague-Dawley rats. As to the method: During the test, general symptom observation, blood test, and body weight measurement were performed, and after the observation period ended, the rats were euthanized and autopsied.
The conditions of data set [5]: in the presence of Telmisartan.
Another data set relates to MDCK cells. As to the kind of experiment: Cell survival rate (MTT) in MDCK cells. Particulars: up to a concentration of 25 µM, 24 and 48 hours, FIGS. 2A, 2B. It is filed as cell-based. As to the method:
(§1) To screen angiotensin II receptor blockers for use in combinations of angiotensin II receptor blockers (ARBs) and sodium-glucose cotransporter-2 (SGLT-2) inhibitors for the treatment of heart failure, cell survival rates were evaluated.
(§2) Specifically, A549 cells were obtained from the Korean Cell Line Bank (KCLB) and subcultured using a RPMI-1640 medium supplemented with 10% fetal bovine serum (FBS) and 1% Penicillin, and MDCK cells were obtained from ATCC and subcultured using a DMEM medium supplemented with 10% FBS. 200 µl each of the A549 cells and MDCK cells incubated in an incubator under 37°C and 5% CO2 conditions were dispensed at 2 × 10^4 cells/well in a 96-well plate, and then a control group was treated with 100 µl of the medium, and experimental groups were treated with 1.25, 25, 50, and 100 µM of Telmisartan or olmesartan, respectively. After 24 and 48 hours, all of the wells were treated with 50 µl each of a 2 mg/ml MTT reagent and incubated in an incubator for 3 hours, and then each well was added with […] of DMSO, wrapped in foil, stirred for 30 minutes at room temperature, and the absorbance was measured at 570 nm to obtain the cell survival rate.

Another data set has as its system A549 cells. As to the kind of experiment: Cell survival rate (MTT) in A549 cells. It is filed as cell-based. Particulars: up to a concentration of 25 µM, 24 and 48 hours, FIGS. 1A, 1B. As to the method:
as §1, §2

[6] abbreviates: ARB ingredient (first value of cell), Acceleration 1 week, 40 ± 2°C/75 ± 5% relative humidity.
Setting [7] is: ARB ingredient (first value of cell), Acceleration 2 week.
Where [8] appears, read: ARB ingredient (first value of cell), Acceleration 3 week.
Setting [9] is: ARB ingredient (first value of cell), Acceleration 4 week.
[10] abbreviates: ARB ingredient (first value of cell), Initial.
Setting [11] is: color, agglomeration, etc., Initial.
Where [12] appears, read: SGLT-2 inhibitor ingredient (second value of cell), Acceleration 1 week.
Setting [13] is: SGLT-2 inhibitor ingredient (second value of cell), Acceleration 2 week.
[14] abbreviates: SGLT-2 inhibitor ingredient (second value of cell), Acceleration 3 week.
The mark [15] stands for this setting: SGLT-2 inhibitor ingredient (second value of cell), Acceleration 4 week.
The mark [16] stands for this setting: SGLT-2 inhibitor ingredient (second value of cell), Initial.
Setting [17] is: 15 µM high-concentration groups.
The mark [18] stands for this setting: low-concentration groups of 2.5 µM to 10 µM.

SMILES strings stand for the structures.

For the molecule `CCCc1nc2c(C)cc(-c3nc4ccccc4n3C)cc2n1Cc1ccc(-c2ccccc2C(=O)O)cc1` [Com. Ex. 16, Telmisartan], the content in data set [1] (setting [6]) is 100.1%; in data set [1] (setting [7]), 100%; in data set [1] (setting [8]), 100%; in data set [1] (setting [9]), 100%; in data set [1] (setting [10]) it was 100.1%. The flexible substance in data set [1] (Acceleration 1 week), in data set [1] (Acceleration 2 week), in data set [1] (Acceleration 3 week), in data set [1] (Acceleration 4 week) and in data set [1] (Initial) was 0.1 or less in each case. The property result in data set [1] (Acceleration 1 week), in data set [1] (Acceleration 2 week), in data set [1] (Acceleration 3 week), in data set [1] (Acceleration 4 week) and in data set [1] (setting [11]) was “suitable” in each case.
`OC[C@H]1O[C@@H](c2ccc(Cl)c(Cc3ccc(O[C@H]4CCOC4)cc3)c2)[C@H](O)[C@@H](O)[C@@H]1O` [Com. Ex. 17, Empagliflozin]: the flexible substance in data set [1] (Acceleration 1 week) was 1.0 or less; in data set [1] (Acceleration 2 week) it was 1.0 or more; in data set [1] (Acceleration 3 week), 5.0 or more; in data set [1] (Acceleration 4 week), 5.0 or more; in data set [1] (Initial), 0.1 or less. Also, the property result was “suitable” in data set [1] (Acceleration 1 week); “suitable” in data set [1] (Acceleration 2 week); “unsuitable” in data set [1] (Acceleration 3 week); “unsuitable” in data set [1] (Acceleration 4 week); “suitable” in data set [1] (setting [11]). The content in data set [1] (setting [12]) is on record as 97.3%; in data set [1] (setting [13]) it was 95.1%; in data set [1] (setting [14]), 85.4%; in data set [1] (setting [15]) it was 80.2%; in data set [1] (setting [16]), 99.9%.
As to `CCCCC(=O)N(Cc1ccc(-c2ccccc2-c2nnn[nH]2)cc1)[C@H](C(=O)O)C(C)C` [Com. Ex. 20, Valsartan], the content in data set [1] (setting [6]) came to 99.4%; in data set [1] (setting [7]), 99.2%; in data set [1] (setting [8]) it was 99%; in data set [1] (setting [9]) it was 98.7%; in data set [1] (setting [10]), 99.7%. In addition, the flexible substance is given as 0.1 or more in data set [1] (Acceleration 1 week); 0.1 or more in data set [1] (Acceleration 2 week); 0.1 or more in data set [1] (Acceleration 3 week); 0.1 or more in data set [1] (Acceleration 4 week); 0.1 or less in data set [1] (Initial). The property result in data set [1] (Acceleration 1 week), in data set [1] (Acceleration 2 week), in data set [1] (Acceleration 3 week), in data set [1] (Acceleration 4 week) and in data set [1] (setting [11]) was “suitable” each time.
With `Cc1ccc([C@@H]2O[C@H](CO)[C@@H](O)[C@H](O)[C@H]2O)cc1Cc1ccc(-c2ccc(F)cc2)s1` [Com. Ex. 21, Canagliflozin], the flexible substance in data set [1] (Acceleration 1 week) was 1.0 or less; in data set [1] (Acceleration 2 week), 5.0 or more; in data set [1] (Acceleration 3 week), 5.0 or more; in data set [1] (Acceleration 4 week) it was 5.0 or more; in data set [1] (Initial), 0.1 or less. The property result in data set [1] (Acceleration 1 week) is on record as “unsuitable”; in data set [1] (Acceleration 2 week), “unsuitable”; in data set [1] (Acceleration 3 week), “unsuitable”; in data set [1] (Acceleration 4 week), “unsuitable”; in data set [1] (setting [11]), “suitable”. Moreover, the content in data set [1] (setting [12]) came to 95.2%; in data set [1] (setting [13]), 89.2%; in data set [1] (setting [14]), 85.2%; in data set [1] (setting [15]), 80.1%; in data set [1] (setting [16]) it was 99.5%.
With `OC[C@H]1O[C@@H](c2ccc(Cl)c(Cc3ccc(O[C@H]4CCOC4)cc3)c2)[C@H](O)[C@@H](O)[C@@H]1O` [Comparative Example 8, Empagliflozin], in data set [2] (setting [17]), the “mRNA expression of ACE” value is reported as “decrease below the normal level”.
Still for that read-out and setting: the same measure for `CCCc1nc2c(C)cc(-c3nc4ccccc4n3C)cc2n1Cc1ccc(-c2ccccc2C(=O)O)cc1` [Comparative Example 14, Telmisartan]: “decrease below the normal level”.
Turning to `CCOc1ccc(Cc2cc([C@@H]3O[C@H](CO)[C@@H](O)[C@H](O)[C@H]3O)ccc2Cl)cc1` [Dapagliflozin, (1S)-1,5-anhydro-1-C-{4-chloro-3-[(4-ethoxyphenyl)methyl]phenyl}-D-glucitol], the “difference in AUCall between groups in the single administration group and the combined administration group” value in data set [3] was found to be 1.0 times. Moreover, the GLU result in data set [4] is “decreased”. In addition, the “Cmax of Dapagliflozin (T/R ratio)” value in data set [5] (90% confidence interval 0.93 to 1.12) is given as “approximately 1.02 times”. In data set [5] (90% confidence interval 0.97 to 1.03), the “AUC of Dapagliflozin (T/R ratio)” value is recorded as “approximately 1.00 times”. Also, the “mRNA expression of ACE” value in data set [2] (setting [18]) is recorded as “did not decrease to a normal level”.
As to `OC[C@H]1O[C@@H](c2ccc(Cl)c(Cc3ccc(O[C@H]4CCOC4)cc3)c2)[C@H](O)[C@@H](O)[C@@H]1O` [Empagliflozin, (1S)-1,5-anhydro-1-C-[4-chloro-3-[[4-[[(3S)-tetrahydro-3-furanyl]oxy]phenyl]methyl]phenyl]-D-glucitol], in data set [2] (setting [18]), the “mRNA expression of ACE” value is listed as “did not decrease to a normal level”.
As to `CCCc1nc(C(C)(C)O)c(C(=O)O)n1Cc1ccc(-c2ccccc2-c2nnn[nH]2)cc1` [olmesartan], the cell survival rate entry with MDCK cells and in the data set with A549 cells was “no effect on cell survival rate” in each case.

The values are drawn from EP4640213A1, “ORAL PHARMACEUTICAL PREPARATION COMPRISING SODIUM-GLUCOSE COTRANSPORTER-2 INHIBITOR AND ANGIOTENSIN II RECEPTOR BLOCKER” (THPharm Corp., priority 2022, dated 2024).
